# Results taken from ChEMBL document CHEMBL1142982, “Discovery of N-(4-(3-amino-1H-indazol-4-yl)phenyl)-N'-(2-fluoro-5-methylphenyl)urea (ABT-869), a 3-aminoindazole-based orally active multitargeted receptor tyrosine kinase inhibitor” (J Med Chem, 2007).
# Legend:
# [1] = Oral bioavailability in CD1 mouse; format: ADME, organism-based; settings: in vivo
# [2] = AUC in CD1 mouse at 10 mg/kg, po; format: ADME, organism-based; set-up: dose 10 mg/kg, route oral; settings: plasma
# [3] = Stability in mouse hepatocyte assessed as metabolic turnover after 6 hrs; format: ADME, cell-based; settings: hepatocytes
# [4] = Oral bioavailability n Sprague-Dawley rat at 5 mg/kg, po; format: ADME, organism-based; settings: in vivo
# [5] = Half life in Sprague-Dawley rat at 5 mg/kg, iv; format: ADME, organism-based; set-up: dose 5 mg/kg, route intravenous; settings: in vivo
# [6] = Stability in human hepatocyte assessed as metabolic turnover after 6 hrs; format: ADME, cell-based; settings: hepatocytes, read-out: Stability
# [7] = Clearance in Sprague-Dawley rat at 5 mg/kg, iv; settings: in vivo
# [8] = Volume of distribution in Sprague-Dawley rat at 5 mg/kg, iv; format: ADME, organism-based; set-up: dose 5 mg/kg, route intravenous; settings: in vivo, read-out: Vdss
# [9] = Stability in monkey hepatocyte assessed as metabolic turnover after 6 hrs; format: ADME, cell-based, Macaca mulatta; settings: rhesus monkey, hepatocytes
# [10] = Clearance in cynomolgus monkey at […], iv; format: ADME, organism-based, Macaca fascicularis; set-up: dose 2.5 mg/kg, route intravenous; settings: in vivo
# [11] = AUC in cynomolgus monkey at […], po; format: ADME, organism-based, Macaca fascicularis; set-up: dose 2.5 mg/kg, route oral; settings: plasma
# [12] = AUC in Beagle dog at […], po; format: ADME, organism-based, Canis lupus familiaris; set-up: dose 2.5 mg/kg, route oral; settings: plasma
# [13] = Stability in dog hepatocyte assessed as metabolic turnover after 6 hrs; format: ADME, cell-based, Canis lupus familiaris; settings: hepatocytes
# [14] = Half life in cynomolgus monkey at […], iv; format: ADME, organism-based, Macaca fascicularis; set-up: dose 2.5 mg/kg, route intravenous; settings: in vivo
# [15] = Oral bioavailability in cynomolgus monkey at […], po; format: ADME, organism-based, Macaca fascicularis; settings: in vivo
# [16] = AUC in Sprague-Dawley rat at 5 mg/kg, po; format: ADME, organism-based; set-up: dose 5 mg/kg, route oral; settings: plasma
# [17] = Oral bioavailability in Beagle dog at […], po; format: ADME, organism-based, Canis lupus familiaris; settings: in vivo
# [18] = Aqueous solubility at pH 7 at room temperature; format: physicochemical; settings: buffer
# [19] = Volume of distribution in cynomolgus monkey at […], iv; format: ADME, organism-based, Macaca fascicularis; set-up: dose 2.5 mg/kg, route intravenous; settings: in vivo, read-out: Vdss
# [20] = Volume of distribution in Beagle dog at […]; format: ADME, organism-based, Canis lupus familiaris; set-up: dose 2.5 mg/kg; settings: in vivo, read-out: Vdss
# [21] = Clearance in Beagle dog at […], iv; format: ADME, organism-based, Canis lupus familiaris; set-up: dose 2.5 mg/kg, route intravenous; settings: in vivo
# [22] = Half life in Beagle dog at […], iv; format: ADME, organism-based, Canis lupus familiaris; set-up: dose 2.5 mg/kg, route intravenous; settings: in vivo
# [23] = Lipophilicity, log D at pH 7.4; format: physicochemical; settings: buffer
smiles,measurement,setting,value
Cc1cccc(NC(=O)Nc2ccc(-c3cccc4c3c(N)nn4C)cc2)c1,bioavailability,[1],89%
same,AUC,[2],19.8 µM·h
Cc1cccc(NC(=O)Nc2ccc(-c3ccc(OCCN4CCOCC4)c4[nH]nc(N)c34)cc2)c1,bioavailability,[1],20%
same,AUC,[2],1 µM·h
Cc1ccc(F)c(NC(=O)Nc2ccc(-c3cccc4[nH]nc(N)c34)cc2)c1 [LINIFANIB],parent remaining at 6 h,[3],91%
same,bioavailability,[4],27%
same,half-life,[5],3.6 h
same,metabolised at 6 h,[6],91%
same,clearance,[7],3.3 mL/min/kg
same,Vd,[8],1.1 L/kg
same,parent remaining at 6 h,[9],91%
same,clearance,[10],8.2 mL/min/kg
same,AUC,[11],600 ng·h/mL
same,AUC,[12],1500 ng·h/mL
same,parent remaining at 6 h,[13],91%
same,half-life,[14],3.1 h
same,bioavailability,[15],10.6%
same,bioavailability,[1],100%
same,AUC,[16],6800 ng·h/mL
same,bioavailability,[17],47%
same,Solubility,[18],0.027 µg/mL
same,Vd,[19],2.2 L/kg
same,Vd,[20],1.2 L/kg
same,clearance,[21],7.2 mL/min/kg
same,AUC,[2],24.5 µM·h
same,half-life,[22],2 h
same,logD,[23],4.2
Nc1n[nH]c2cccc(-c3ccc(NC(=O)Nc4cccc(Cl)c4)cc3)c12,bioavailability,[1],50%
same,AUC,[2],15 µM·h
Cc1cccc(NC(=O)Nc2ccc(-c3cccc4[nH]nc(N)c34)cc2)c1,bioavailability,[1],38%
same,AUC,[2],6.5 µM·h
Cc1cc(NC(=O)Nc2ccc(-c3cccc4[nH]nc(N)c34)cc2)ccc1F,bioavailability,[1],66%
same,AUC,[2],10.9 µM·h
